According to PMC3928314, “Identification and Characterization of Sebaceous Gland Atrophy-Sparing DGAT1 Inhibitors” (PLoS ONE, 2014):
“And” between values parts separate entries of the source, which are not always exact repeats. Identical values can stand only once. “Also recorded” adds a separate entry of the source. Like-named read-outs stand apart in the source and are kept apart here.

Tests used:
[1] = Plasma compound concentration after 14 days oral dosing; type: in vivo, mouse; settings: DIO mice, oral 30 mg/kg or dose indicated (Cpd1 3 mg/kg), trough
Protocol: (§1) Experiments were performed in male diet induced obese C57BL/6 mice (Taconic Farms, Germantown, NY) that were fed high-fat diet (D12492: 60% kcal from fat; Research Diets) in a 12 hr light/12 hr dark cycle. Animal protocols used in these studies were approved by the Merck Research Laboratories Institutional Animal Care and Use Committee (Rahway, NJ). Mice were acclimated to nonspecific stress for 7 days before the onset of the chronic dosing studies where they were dosed orally with vehicle (0.5% methylcellulose) or compounds at 30 mg/kg, or at doses indicated, for 14 days.
Concentrations of compounds in plasma were determined by LC-MS/MS following protein precipitation. To 100 µL of plasma sample, 20 µL of an acetonitrile solution of the internal standard (2,500 ng/ml), was added. This step was followed by protein precipitation with 300 µL of acetonitrile. Samples expected to contain analyte concentrations exceeding the upper limits of the calibration curves were diluted with control plasma. Sample mixtures were vortex-mixed for 15 minutes. After spinning in a centrifuge for 15 minutes at 1,000× g (at 10°C), the supernatants were transferred by a Tomtec Quadra 96 Model 320 (Hamden, CT) to Empore 96 filter plates (Fisher Scientific, Springfield, NJ), and the resulting filtrates collected. These filtrates were dried at 25°C under a stream of nitrogen gas, on a Zymark TurboVap 96 (Hopkinton, MA). The residues were reconstituted with 100 µL of a 8∶2, v/v, mixture of mobile phases A (20 mM aqueous ammonium acetate containing 0.01% formic acid), and B (80∶20, v/v, acetonitrile:methanol), vortex-mixed, spun in a centrifuge at 1,000× g (at 10°C), then analyzed by LC-MS/MS.
The LC-MS/MS system comprised of a Leap Technologies HTS-PAL autosampler (Carrboro, North Carolina), two Perkin Elmer Series 200 Micro Pumps (Norwalk, CT), an in-line pre-column filter, a Type W 6-port Valco switching valve (Vici, Houston, TX), and a Sciex API 365 mass spectrometer (Toronto, Canada). Chromatographic separation of the analytes was achieved by RP-HPLC.
Data were acquired and processed by Sciex Analyst version 1.1 software. Peak area ratios of analyte to internal standard were plotted as a function of the nominal concentrations of the analyte. A line of best fit was generated from the curve points by linear regression with a weighting factor of 1/x2. The equation of this line was then used to calculate the plasma […] in samples.

[2] = Skin compound concentration after 14 days oral dosing; type: in vivo, mouse; settings: DIO mice; for Skin (skin concentration): oral 30 mg/kg or dose indicated (Cpd1 3 mg/kg), 14 days, trough, BLQ = below detection; for Kp: male, C57BL/6, mouse, skin/plasma, 14 days oral dosing, read-out: Skin/Plasma Ratio (skin to plasma concentration ratio)
Protocol: as §1
The skin tissue samples from mice were weighted and placed in 48-well plates (or tubes). […] An aliquot of 100 µL homogenized blank skin tissue samples were transferred to 96-well plates designated for standard curve and QCs. […] An aliquot of 100 µL dosed skin tissue homogenates were transferred to the 96-well plate and a 25 µL aliquot of acetonitrile:water 1∶1 was added into each well containing dosed tissue samples to make the volumes of all samples, stds, and QCs equal. Protein precipitation was used for sample extraction by the addition of 500 µL of acetonitrile crash solution, containing IS. Internal standard used was Alprazolam (Sigma Aldrich) at 100 µM in the crash solution. Samples were vortexed for 30 seconds and then centrifuged at 4000 rpm for 5 min. The supernatant was transferred to a separate plate.
A Thermo Scientific-Cohesive LX-2 system consisting of a CTC Analytics autosampler, Flux Instruments AG pumps, and a valve module, controlled by Aria software was used. A Sciex API-4000 mass spectrometer (Toronto, Canada) was the detector using Analyst 1.4.2 software. The aqueous mobile phase (A) was water with 0.1% formic acid and the organic mobile phase (B) was acetonitrile with 0.1% formic acid. A gradient chromatographic profile was used. […] Then over 90 seconds, the chromatic conditions were ramped to 5% A and 95% B. This was held for 25 seconds when the conditions were changed back to original 95% A and 5% B and held for 50 seconds. […] A turbo ionspray interface was used in positive ion mode for detection of analytes. Multiple reaction monitoring (MRM) was used to measure the analyte response. The peak area ratio of analyte to internal standard for nominal concentrations was used to make a linear regression line with a 1/x2 weighting factor. The line's equation was used to determine the concentration in the unknown samples.

[3] = Unbound fraction (Fu) in plasma by equilibrium dialysis; type: in vitro ADME; settings: pH 7.4, mouse plasma, equilibrium dialysis 4 hr 37°C
Protocol: Plasma protein binding was determined by equilibrium dialysis with an incubation period of 4 hr at 37°C. The dialysis membrane (10-12K MWCO, HTDialysis, LLC) was hydrated and the dialysis apparatus (HTDialysis, LLC) assembled according to the manufacturer's directions. A 150 µL aliquot of mouse plasma containing compound (5 µM) was added to one side of the dialysis membrane. A 150 µL aliquot of phosphate buffered saline (pH 7.4) was added to the opposite side. The plate was then sealed and placed in a shaking incubator set to maintain a temperature of 37°C and constant shaking rate of 60 rpm for 4 hr. At the end of the incubation period, 50 µL aliquots of plasma and buffer were removed and analyzed by LC-MS/MS. Percent unbound was determined as the amount of compound in buffer (post incubation) divided by amount of compound in plasma (post incubation) x100.

[4] = Measured logD by high-throughput HPLC; type: physicochemical; settings: reversed-phase HPLC, Poroshell 120 EC-C18 column; HT HPLC, pH 7.0; read-out: mlogD (measured logD)
Protocol: LogD was measured by high-throughput (HT) HPLC at pH 7.0. The chromatographic system consisted of an Agilent 1200 HPLC system composed of a G1379B degasser, G1312B binary pump, G1367C well-plate autosampler, G1316B thermostatted column compartment, G1315C diode-array UV-vis detector, and ChemStation software, all from Agilent Technologies, USA. The separations were carried out on a Poroshell 120 EC-C18, 30 mm×3.0 mm I.D., 2.7 µm, (Agilent Technologies, USA). The mobile phase consisted of phosphate buffered saline at pH 7 (mobile phase A) and acetonitrile (mobile phase B). The column oven temperature was set to 30°C. The HPLC analysis began with an isocratic step of 0.2 minutes at 5% B at 1.5 ml/min, followed by a gradient from 5% to 98% B in 1.0 minute at 1.5 ml/min. A second isocratic step of 0.2 minutes at 98% B with a changing flow rate from 1.5 to 2.0 ml/min was then followed by a gradient from 98 to 5% B in 0.1 minutes with the flow rate changing from 2.0 to 1.5 ml/min. The equilibration time between injections is 0.2 minutes at 5% B. The injection volume is 5 µL and the spectrophotometric detection was set to 215, 238 and 254 nm.
A 10 mM DMSO stock solution of compound was delivered for analysis. A 100 µM standard solution was generated by diluting 10 µL of the 10 mM stock solution with 990 µL of diluent (10% DMSO/10% MeCN/80% MeOH, v/v/v). The chromatographic system was calibrated with a set of standards with published shake-flask logD values. Linear regression was used to determine the calibration line relating the retention time to logD for the calibration standards. This line was then used to determine the HT HPLC logD7.0 value of compound from the measured retention time by the HPLC/DAD analysis of the 100 µM standard solution.

mDGAT1 = molecular target: T1, mDGAT1 (Mus musculus, UniProt Q9Z2A7); test: DGAT1 enzyme assay; type: biochemical; settings: in vitro potency
T1 construct: made in house; host or cells: Pichia (membrane preparations)
T1 sequence (Q9Z2A7 1-498): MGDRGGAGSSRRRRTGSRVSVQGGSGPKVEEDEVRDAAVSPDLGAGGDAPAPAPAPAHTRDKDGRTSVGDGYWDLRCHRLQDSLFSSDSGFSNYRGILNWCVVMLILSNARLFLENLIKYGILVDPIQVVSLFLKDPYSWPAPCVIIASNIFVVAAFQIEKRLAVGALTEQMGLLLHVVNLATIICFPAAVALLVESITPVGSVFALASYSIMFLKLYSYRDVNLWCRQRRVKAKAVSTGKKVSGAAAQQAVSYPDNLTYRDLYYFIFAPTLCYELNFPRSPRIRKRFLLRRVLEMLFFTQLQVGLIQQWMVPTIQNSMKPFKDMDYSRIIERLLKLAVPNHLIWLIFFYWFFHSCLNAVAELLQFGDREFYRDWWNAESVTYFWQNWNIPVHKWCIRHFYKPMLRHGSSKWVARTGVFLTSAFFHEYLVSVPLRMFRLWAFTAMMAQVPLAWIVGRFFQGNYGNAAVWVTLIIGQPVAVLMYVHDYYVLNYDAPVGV

[5] = tested on: male diet induced obese C57BL/6 mice; test: Skin histology, sebaceous gland atrophy in DIO mice; type: in vivo, mouse; settings: for Sebaceous gland atrophy in skin, in words (skin-positive / skin-negative): 14 days of treatment; for Sebaceous gland size (area), Geometric Mean: dorsal skin biopsies, Cpd1 3 mg/kg, Cpd2 and Cpd3 30 mg/kg, n 10; for Sebaceous gland size (area), Geometric Mean / Scoring (histological adverse effect score, sebaceous gland atrophy): 14 days; for Scoring (histological adverse effect score, sebaceous gland atrophy): oral 30 mg/kg or dose indicated (Cpd1 3 mg/kg), dorsal skin
Protocol: as §1
Skin samples from DIO mice treated with DGAT1 inhibitors for 14 days were collected from the dorsal and/or ventral surface and immediately fixed in 10% buffered formalin for 24 hr at room temperature and embedded in paraffin. Paraffin specimens were sectioned at 5 µm and stained with hematoxylin and eosin, and were evaluated blindly with light microscopy. […] One slide/location with at least 50 sebaceous glands was used for scoring purposes. Digital images were captured using a 20× objective and the ScanScope XT slide scanner system (Aperio Technologies, Vista, CA) and managed using Spectrum (Aperio). The size of the sebaceous glands were measured using ImageScope of Aperio system by the method previously described.

rats = test: Longer exposure in rats, skin adverse effects; type: in vivo, rat; settings: up to 300 mg/kg for 4 weeks, data not shown

Row | Plasma (plasma concentration) [1] | Skin (skin concentration) [2] | Kp [2] | fraction unbound at 4 h, 5 µM [3] | chromatographic logD [4] | IC50 (mDGAT1) [µM] | IC50 (mDGAT1; same values in µM) [µM] | Sebaceous gland size (area), Geometric Mean [5] | Kp ([2]; po) | SMILES | Sebaceous gland atrophy in skin, in words (skin-positive / skin-negative) [5] | Scoring (histological adverse effect score, sebaceous gland atrophy) [5] | Adverse effects in skin (rats)
1 | 1.38 µM | 0.135 µM | 0.098 | 0.063 | 1.73 | 0.011 | 0.011 | 1562 |  | O=C(Nc1ccc([C@H]2CC[C@H](C(=O)O)CC2)cc1F)c1nnc(Nc2ccc(F)c(F)c2)o1 [Cpd3] | induce either “minimal to mild” or “moderate to marked” skin sebaceous gland atrophy | minimal to mild | 
2 | 51.4 µM | BLQ |  | 0.112 | 2.15 |  |  |  |  | CC(C)(O)C[C@H]1CC[C@H](c2ccc(N3CCOc4ncnc(N)c4C3=O)cc2)CC1 [Cpd22] | induce either “minimal to mild” or “moderate to marked” skin sebaceous gland atrophy | moderate to marked | 
3 | 0.194 µM | 0.0621 µM | 0.32 |  | 0.35 |  |  | 1805 |  | Nc1ncnc2c1C(=O)N(c1ccc([C@H]3CC[C@H](CC(=O)O)CC3)cc1)CCO2 [Cpd1] | lack of skin AEs; also recorded: appeared normal; also recorded: Skin-Negative | not remarkable | no adverse effects in skin
4 | 0.124 µM and 0.106 µM and 0.163 µM | 2.16 µM and 1.94 µM and 2.25 µM |  | 0.01 | 4.04 |  |  | 880 | 17.5 | CC(C)(C)OC(=O)NC1(C(=O)N[C@@H]2CC(=O)c3ccccc3N(Cc3cc(C(F)(F)F)cc(C(F)(F)F)c3)C2=O)CC1 [Cpd2] | induce either “minimal to mild” or “moderate to marked” skin sebaceous gland atrophy; also recorded: Skin-Positive | moderate to marked | 
